Test results from patent US11026922B2, “Compositions comprising melatonin and flavonoids for use in the treatment of tumours resistant to chemotherapy” (priority 2014, dated 2021).

Legend:
[1] = tested on: MDA-MB-231 (breast adenocarcinoma); assay: Cell viability of chemoresistant MDA-MB-231 cells (Tables 1, 2, 4); assay type: cell-based, human; conditions: alone or in association with cyclophosphamide
From the text: The activity of the association of at least one flavonoid, preferably selected from the group comprising or, alternatively, consisting of oxerutin, diosmin, hesperidin and rutin in association with melatonin and with synthetic chemotherapeutic agents (cyclophosphamide/methotrexate) and/or arctigenin, arctiin, berberine, berbamine, sanguinarine and chelerythrine (indicated with the term “Extracts” in the Tables) was studied in resistant cell lines of adenocarcinomas and carcinomas in comparison with chemosensitive tumour cell lines and line cells.

[2] = tested on: chemoresistant MDA-MB-231 human tumour cells (breast adenocarcinoma); assay: Viability of MDA-MB-231 cells, xCELLigence assay (Table 5); assay type: cell-based; conditions: conclusion from Tables 5 and 6 (MDA-MB-231 and MCF-7)

SMILES | synergistic effects in association with cyclophosphamide [1] | effect on the anti-tumour activity of flavonoids [2]
O=c1c(O)c(-c2ccc(O)c(O)c2)oc2cc(O)cc(O)c12 [Quercetin, quercetin] | absence of synergistic effects | –
COc1ccc2[nH]cc(CCNC(C)=O)c2c1 [Melatonin, melatonin] | – | enhances the anti-tumour activity of flavonoids
